# According to US8921388B2, “Dihydroxypyrimidine carbonic acid derivatives and their use in the treatment, amelioration or prevention of a viral disease” (priority 2012, dated 2014):
# Test system: influenza A virus A/Aichi/2/68 (H3N2) on MDCK cells
# Test: Cytopathic effect (CPE) assay
# Format: cell-based
# Conditions: not given
row,Structure (SMILES),CPE result in words
1,O=C(NCc1ccccc1)c1nc(CC2(c3ccccc3)CCCC2)nc(O)c1O,inactive
2,O=C(O)c1nc(Cc2ccccc2-c2ccccc2)nc(O)c1O,inactive
3,O=C(NCc1ccccc1)c1nc(Cc2ccccc2-c2ccccc2)nc(O)c1O,inactive
4,CNC(=O)c1nc(Cc2ccccc2-c2ccccc2)nc(O)c1O,inactive
5,O=C(O)c1nc(CC(c2ccccc2)c2ccccc2)nc(O)c1O,inactive
6,O=C(O)c1nc(Cc2ccc(F)cc2Br)nc(O)c1O,inactive
7,COC(=O)c1nc(Cc2ccccc2-c2ccccc2C)nc(O)c1O,inactive
8,CCOC(=O)c1nc(Cc2cncn2Cc2ccccc2)nc(O)c1O,inactive
9,COC(=O)c1nc(Cc2ccc(F)cc2Br)nc(O)c1O,inactive
10,NC(=O)c1nc(Cc2ccc(F)cc2Br)nc(O)c1O,inactive
11,CCOC(=O)c1nc(CC2CCCCC2)nc(O)c1O,inactive
12,COC(=O)c1nc(Cc2ccccc2Br)nc(O)c1OC(C)=O,inactive
13,CNC(=O)c1nc(Cc2ccccc2Br)nc(O)c1O,inactive
14,Cc1cccc(-c2ccccc2Cc2nc(O)c(O)c(C(=O)O)n2)c1,inactive
15,Cc1ccc(C)c(-c2ccccc2Cc2nc(O)c(O)c(C(=O)O)n2)c1,inactive
16,CNC(=O)c1nc(CC2CCCCC2)nc(O)c1O,inactive
17,CNC(=O)c1nc(Cc2ccccc2-c2cc(C)ccc2C)nc(O)c1O,inactive
18,O=C(NCc1ccc(Cl)cc1)c1nc(Cc2ccccc2Br)nc(O)c1O,inactive
19,O=C(O)c1nc(CC2CCCCC2)nc(O)c1O,inactive
20,O=C(O)c1nc(Cc2ccccc2Br)nc(O)c1O,inactive

row,Structure (SMILES),CPE result in words
1,Cc1ccccc1Cc1nc(O)c(O)c(C(=O)O)n1,inactive
2,O=C(NCc1ccc(F)cc1)c1nc(Cc2ccccc2Br)nc(O)c1O,inactive
3,O=C(NCc1ccc(Cl)cc1)c1nc(Cc2ccccc2-c2ccccc2)nc(O)c1O,inactive
4,Cc1ccccc1-c1ccccc1Cc1nc(O)c(O)c(C(=O)O)n1,inactive
5,O=C(O)c1nc(Cc2cc(C(F)(F)F)ccc2Br)nc(O)c1O,inactive
6,CNC(=O)c1nc(Cc2ccccc2-c2ccccc2)n(C)c(=O)c1O,inactive
7,Cn1c(CC2(c3ccccc3)CCCC2)nc(C(=O)O)c(O)c1=O,inactive
8,Cn1c(Cc2ccccc2-c2ccccc2)nc(C(=O)O)c(O)c1=O,inactive
9,Cn1c(Cc2ccccc2-c2ccccc2)nc(C(N)=O)c(O)c1=O,inactive
10,CC(C)NC(=O)c1nc(Cc2ccccc2-c2ccccc2)n(C)c(=O)c1O,inactive
11,CNC(=O)c1nc(NS(=O)(=O)Cc2cccc(C)c2)n(C)c(=O)c1O,inactive
12,COC(=O)c1nc(CC2CCCCC2)n(C)c(=O)c1O,inactive
13,CNC(=O)c1nc(NS(=O)(=O)Cc2ccc(C)cc2)n(C)c(=O)c1O,inactive
14,Cn1c(NS(=O)(=O)Cc2ccc(Cl)cc2)nc(C(=O)O)c(O)c1=O,inactive
15,O=C(O)c1c(O)c(=O)nc(Cc2ccccc2)n1Cc1ccccc1,inactive
16,O=C(O)c1c(O)c(=O)nc(Cc2ccccc2Br)n1Cc1ccccc1,inactive
17,CNC(=O)c1nc(NS(=O)(=O)Cc2ccccc2)n(C)c(=O)c1O,inactive
18,CNC(=O)c1nc(NS(=O)(=O)Cc2ccc(Cl)cc2)n(C)c(=O)c1O,inactive
19,COC(=O)c1c(O)c(=O)nc(Cc2ccccc2)n1Cc1ccccc1,inactive

# Same assay, conditions: Influenza A virus, H3N2, MDCK, in Canis lupus familiaris, 48 h
row,Structure (SMILES),IC50
1,COC(=O)c1nc(CC2(c3ccccc3)CCCC2)nc(O)c1O,12 µM
2,NC(=O)c1nc(CC2(c3ccccc3)CCCC2)nc(O)c1O,42 µM
3,O=C(O)c1nc(CC2(c3ccccc3)CCCC2)nc(O)c1O,49 µM
4,CNC(=O)c1nc(CC2(c3ccccc3)CCCC2)nc(O)c1O,22 µM
5,CC(C)NC(=O)c1nc(Cc2ccccc2-c2ccccc2)nc(O)c1O,23 µM
6,O=C(NCc1ccc(F)cc1)c1nc(Cc2ccccc2-c2ccccc2)nc(O)c1O,10 µM
7,O=C(NCCc1ccccc1)c1nc(Cc2ccccc2-c2ccccc2)nc(O)c1O,8 µM
8,O=C(c1nc(Cc2ccccc2-c2ccccc2)nc(O)c1O)N1CCCC1,89 µM
9,CCOC(=O)c1nc(Cc2ccccc2-c2cc(C)ccc2C)nc(O)c1O,9.1 µM
10,COC(=O)c1nc(Cc2ccccc2-c2cc(C)ccc2C)nc(O)c1O,16 µM
11,Cc1ccc(C)c(-c2ccccc2Cc2nc(O)c(O)c(C(=O)OC(C)(C)C)n2)c1,0.11 µM
12,CNC(=O)c1nc(CC2(c3ccccc3)CCCC2)n(C)c(=O)c1O,11 µM
13,COC(=O)c1c(O)c(=O)nc(Cc2ccccc2Br)n1Cc1ccccc1,34 µM
